{"source": "patent US11225481B2", "about": "(Centre national de la recherche scientifique, priority 2015, dated 2022)", "key": {"c-Myc": {"tested_on": "c-Myc", "assay": "Western blot of c-Myc in Jurkat cells", "assay_type": "cell-based, human", "conditions": "24 h, same range of concentration as EC50", "method": "Non-treated Jurkat cells and Jurkat cells treated during 24 h with compound of the invention 26b, or DMSO were lysed in RIPA lysis buffer (Tris HCl pH=7.5 50 mM, NaCl 150 mM, Triton 1%, SDS 0.1%, sodium deoxycholate 1%) supplemented with protease inhibitor cocktail (P8340, Sigma-Aldrich) and 1 mM PhenylMethylSulfonyl Fluoride (Sigma-Aldrich). 75 μg of protein were loaded onto 10% acrylamide SDS/PAGE and then transferred to nitrocellulose Hybond C-extra membranes, […] (GE Healthcare). The membranes were saturated with 5% (wt/vol) skim milk in TBST [Tris-buffered saline/0.1% (vol/vol) Tween 20] 1 h at room temperature and incubated with anti-myc antibody (clone 9E10, sc40 Santa Cruz) at a 1:500 dilution in 0.5% (wt/vol) skimmed milk in TBST overnight at 4° C. Membranes were then washed with TBST, incubated with an HRP-conjugated anti-mouse secondary antibody (polyclonal goat anti mouse P0447, Pierce) at a 1:20,000 dilution in TBST 1 h at room temperature. […] Quantification was performed using ImageJ software."}, "BRD4(BD2)": {"molecular_target": "T1, BRD4(BD2) (Homo sapiens, UniProt O60885)", "T1 construct": "purchased BPS Bioscience", "assay": "HTRF bromodomain selectivity profile", "assay_type": "binding", "conditions": "Table 3 selectivity profile", "method": "HTRF assays were performed in white 384 Well Small Volume™ HiBase Polystyrene Microplates (Greiner) with a total working volume of 20 μL. Compounds were dispensed, with 200 nL per well (1% final DMSO), from a concentration stock of 1 mM in 100% DMSO and with serial DMSO dilutions, using a Mosquito Crystal pipetting robot platform (TTP labtech). The IC50 measurements were performed in triplicates (Table 2 and 3). All HTRF reagents were purchased from CisBio Bioassays and reconstituted according to the supplier protocols. For each assay 14.7 μL of mix 1 (protein+peptide) is added in the assay wells, containing previously dispensed inhibitors, according to the final concentration and buffer described in Table 4, using a Biomek NX MC pipetting robot (Beckman). Then, 5.1 μL of mix 2 (donnor+acceptor) is added. HTRF signals were measured, after a final incubation (overnight at room temperature), using a PHERAstar FS (BMG Labtech) with an excitation filter at 337 nm and fluorescence wavelength measurement at 620 and 665 nm, an integration delay of 60 μs and an integration time of 500 μs. Results were analyzed with a two-wavelengths signal ratio: [intensity (665 nm)/intensity (620 nm)]*10^4. Percentage of inhibition was calculated using the following equation: % inhibition=[(compound signal)−(min signal)]/[(max signal)−(min signal)]*100, where ‘max signal’ is the signal ratio with the compound vehicle alone (DMSO) and ‘min signal’ the signal ratio without peptide.\nSelectivity profiles of bromodomain inhibitors were performed as described in HTRF screen section. […] HTRF detection reagents (EPIgeneous™ Binding Domain kits) were purchased from Cisbio Bioassays and used according to supplier's protocol. GST tagged bromodomain proteins were purchased from BPS Bioscience and histone peptide from Anaspec."}, "Jurkat cells": {"tested_on": "Jurkat cells", "assay": "Cell Titer-Glo cell viability (cytotoxicity experiments)", "assay_type": "cell-based", "conditions": "Homo sapiens, 72 h incubation at 37° C., read-out: EC50, Jurkat T cells viability", "method": "The human leukemia cell line Jurkat (ATCC® TIB-152) was maintained in RPMI-1640 medium supplemented with 10% FBS at 37° C. and 5% CO2. Human osteosarcoma cell line (U2OS, ATCC® HTB-96™) was maintained in DMEM supplemented with 10% FBS at 37° C. and 5% CO2.\nIn antiproliferative assays, compounds were assayed for their growth inhibiting activity towards the described cancer cell lines using the Cell Titer-Glo Luminescent Cell Viability Assay as described by the manufacturer (Promega Corporation). Briefly, […] cells were plated onto 96 well-plates (white with clear bottom (3610, Corning Costar)) in 100 μL media per well immediately before assay. Compounds were added at different concentrations (ranging from 100 to 0.05 μM) to each well and cell cultures were incubated 37° C. during 72 h. Vehicle (DMSO) was used as control and all compounds were tested in constant percentage of DMSO (1%). After addition of 50 μL Cell Titer-GLO, Luminescence was measured using a Centro luminometer LB960 (Berthold). Dose-response curves were generated and effective dose 50 values (EC50) were calculated using non-linear regression analysis (Graph Pad Prism)."}, "BRD4(BD1)": {"molecular_target": "T2, BRD4(BD1) (Homo sapiens, UniProt O60885)", "T2 construct": "a BRD4(BD1) synthetic gene that includes a TEV cleavage site was purchased from LifeTechnology; made in house", "assay": "Isothermal Titration Calorimetry", "assay_type": "binding", "description": "For Isothermal Titration Calorimetry (ITC) and crystallogenesis, BRD4(BD1) was produced and purified using a histidine tag affinity chromatography as described by Filipakopoulos et al.9 For these experiments, a pNIC28-BSA4 expression vector containing BRD4(BD1) and a Tobacco Etch Virus (TEV) protease cleavage site have kindly been provided by Stefan Knapp laboratory from the SGC at the University of Oxford. After size exclusion chromatography, the fractions presenting pure BRD4(BD1) after TEV cleavage of the histidine tag were pooled and concentrated to 25 mg/mL for crystallogenesis. For ITC assays, the protein was concentrated up to at 6 mg/mL and the DTT was removed using a buffer exchange column (PD10 from GE healthcare) equilibrated with 10 mM HEPES pH=7.5, 150 mM NaCl. For Homogeneous Time Resolved Fluorimetry (HTRF) experiments, a BRD4(BD1) synthetic gene that includes a TEV cleavage site was purchased from LifeTechnology in a pDONR transport vector before cloning into a pDESTTM15 expression vector for GST affinity purification. Protein production and purification was carried out using similar protocols and buffers as used for the His-BRD4(BD1) system. Purification was carried on GST affinity resin (Thermo Scientific) and reduced glutathione was used for protein release. GST-BRD4(BD1) was further purified by size exclusion chromatography on a Superdex 16/60 Hiload column (GE Healthcare) using 20 mM TRIS pH=8.0, 150 mM NaCl Buffer.\nITC was used to evaluate the thermodynamics parameters of the binding between BRD4(BD1) and the selected compounds, using ITC conditions previously described by Filippakopoulos et al.8 Purified BRD4(BD1) was extensively dialyzed in the ITC buffer containing 10 mM Hepes pH=7.5 and 150 mM NaCl. Compounds were diluted directly in the last protein dialysate prior to experiments. Titrations were carried out on a MicroCal ITC200 microcalorimeter (GE Healthcare, Piscataway, N.J.). Each experiment was designed using a titrant concentration (protein in the syringe) set 10 to 15 times the analyte concentration (compound in the cell generally between 10 and 35 μM) and using 13 injections at 35° C. A first small injection (generally 0.2 μL) was included in the titration protocol in order to remove air bubbles trapped in the syringe prior titration. Raw data were scaled after setting the zero to the titration saturation heat value. Integrated raw ITC data were fitted to a one site non-linear least squares fit model using the MicroCal Origin plugin as implemented in Origin 7 (Origin Lab). Finally, ΔG and TΔS values were calculated from the fitted ΔH and KA values using the equations ΔG=−R.T. ln KA and ΔG=ΔH−TΔS."}}}
{"compound": "CCCCc1c(C)nc2nc(SCc3nc4c(c(=O)[nH]c(=O)n4CCCC)n3CC)nn2c1C", "note": "[Compound 26b, 3-Butyl-8-(6-butyl-5,7-dimethyl-[1,2,4]triazolo[1,5-a]pyrimidin-2-ylsulfanylmethyl)-7-ethyl-3,7-dihydro-purine-2,6-dione]", "values": [{"measurement": "c-Myc down regulation", "setting": "c-Myc", "value": "down regulated c-Myc"}, {"measurement": "IC50", "setting": "BRD4(BD2)", "value": "> 100", "unit": "µM"}, {"measurement": "IC50 (μM) BRD4(BD2)", "setting": "BRD4(BD2)", "value": "no detectable inhibition"}, {"measurement": "EC50", "setting": "Jurkat cells", "value": 27, "unit": "µM"}, {"measurement": "entropy term −TΔS", "setting": "BRD4(BD1); ITC, BRD4(BD1)", "value": -7.1, "unit": "kcal/mol"}, {"measurement": "Kd", "setting": "BRD4(BD1); Isothermal Titration Calorimetry", "value": 1400, "unit": "nM"}]}
